What all share (assay): CD
Experiment [1] relates to B1 (DNA, aptamer) GAGAGTCAATCGACCTGGGGGAGTATTGCGGAGGAAGGTACGCATTCGCTATA
The following applies: 300 mM NaCl, 5 mM MgCl2; 20 mM Tris-HCl; 5 μM DNA, 1 mM ATP, room temperature; peak shift 272 to 277 nm.

Experiment [2] relates to L1 (random DNA sequence) (DNA, single strand) GAGAGTCAATCGTCTATTCGCATGAGAATTCCATTCACCGTAAG
As to conditions: 300 mM NaCl, 5 mM MgCl2; 20 mM Tris-HCl; 5 μM DNA, 1 mM ATP; nonspecific peak shift 277 to 280 nm.

Experiment [3] concerns B-linker (B1/B2 assembly) (DNA, aptamer) GAGAGTCAATCGACCTGGGGGAGTATTGCGGAGGAAGGTACGCATTCGCTATA/GAGAGTCAATCGTATAGCGAATGCGT
The following applies: 300 mM NaCl, 5 mM MgCl2; 20 mM Tris-HCl; 5 μM DNA, 1 mM ATP; peak shift 273 to 279 nm; CD alone not conclusive.

With `Nc1ncnc2c1ncn2[C@@H]1O[C@H](COP(=O)(O)OP(=O)(O)OP(=O)(O)O)[C@@H](O)[C@H]1O`, the binding entry is recorded as “yes” in experiment [1], “no” in experiment [2] and “yes” in experiment [3].

For the origin of these results see PMC6032235 (2018).
